According to patent US9758501B2, “Fluorophore 3-hydroxyflavone” (TUBITAK (TURKIYE BILIMSEL VE TEKNOLOJIK ARASTIRMA KURUMU), priority 2013, dated 2017):

Legend:
[1] = system: C25: single-strain DNA chain, comprising 25 Cytosines; experiment: Fluorescence N*/T* ratio vs DNA concentration, C25; conditions: C25 added to 3-HFNMe3 in ultra pure water
Procedure: C25: A single-strain DNA chain, comprising 25 Cytosines
(§1) Fluorescence emission was then recorded after each addition the DNA solution (2 μl, 20 nmol/ml). The ratio of N* and T* bands was calculated and a graph, having N*/T* ratio vs DNA concentration was plotted.

[2] = system: T25: single-strain DNA chain, comprising 25 Thymines; experiment: Fluorescence N*/T* ratio vs DNA concentration, T25; conditions: T25 added to 3-HFNMe3 in ultra pure water
Procedure: T25: A single-strain DNA chain, comprising 25 Thymines
as §1

[3] = system: single-strain DNA chains; experiment: Fluorescence measurements on gradual addition of DNA solution; conditions: ultra pure water; DNA solution added in 2 μl portions (20 nmol/ml)
Procedure: as §1

“N-(3-hydroxy-4′-flavonyl)-N,N,N-trimethylammonium sulphate [3-HFNMe3]” was tested, and the “N*/T* curve, rank among DNA chains” value [1] was “highest”, the “N*/T* curve, rank among DNA chains” value [2] was “lowest” and the “effect of DNA addition on fluorescence emission” value [3] was “ratiometric quenching of particularly the N* band”.
